IR800 = IRDye800CW
How the values were obtained:
GRPr and NMB-R = settings: with or without a chelated metal ion; same assay as in Fig. 2; ref [31]; cited from earlier work
PC-3 cells = experiment: Direct binding assay in PC-3 cells by fluorescence microscopy; type: cell-based, human; settings: 2 μM, 2 h incubation

Substance	IC50 (GRPr and NMB-R) [nM]	Direct binding to PC-3 cells (fluorescence microscopy) (PC-3 cells)
DO3A-CH2CO-G-ABz4-QWAVGHLM-NH2 [AMBA]	2 to 5	
IR800-GSG-t-BBN: IR800-linker-QWAVGHLM-NH2 with linker = GSG (IR800-GSGQWAVGHLM-NH2)		bound to PC-3 cells to widely different extents
